For 26 compounds, IC50 results are on record in patent US10287301B2 (Achillion Pharmaceuticals, Inc., priority 2015, dated 2019).

SMILES strings stand for the structures.

The target in the first test is Human Factor D (Homo sapiens (Human), UniProt P00746). The experiment in a line: Human Factor D Assay. The test is classed as biochemical. As to conditions: Human Factor D 80 nM, substrate Z-L-Lys-SBzl; read-out: IC50. Here is the method: Human Factor D (purified from human serum, Complement Technology, Inc.) at 80 nM final concentration was incubated with test compound at various concentrations for 5 minutes at room temperature in 50 mM Tris, 1M NaCl, pH 7.5. A synthetic substrate Z-L-Lys-SBzl and DTNB (Ellman's reagent) are added to final concentrations of 100 μM each. […] IC50 values are calculated by nonlinear regression of complement Factor D reaction rates as a function of test compound concentration.
Human Factor D, sequence (P00746 26-253): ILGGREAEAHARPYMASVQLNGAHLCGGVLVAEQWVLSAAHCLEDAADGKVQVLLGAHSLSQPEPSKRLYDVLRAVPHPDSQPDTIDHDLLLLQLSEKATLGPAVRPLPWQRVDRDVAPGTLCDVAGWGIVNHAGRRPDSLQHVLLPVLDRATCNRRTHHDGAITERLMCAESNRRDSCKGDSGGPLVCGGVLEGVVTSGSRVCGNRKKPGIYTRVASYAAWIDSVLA
The term IC50 denotes the concentration at which inhibition is half-maximal. Turning to `NC(=O)c1nn(CC(=O)N2C[C@H](F)C[C@H]2C(=O)Nc2cccc(-c3ccccc3Cl)c2F)c2ccc(-c3cn[nH]c3)cc12` [Compound 1], the IC50 was under 1000 nM. Still for that read-out and setting: to `NC(=O)c1nn(CC(=O)N2C[C@H](F)C[C@H]2C(=O)Nc2cccc(-c3ccccc3Cl)c2F)c2ccc(-c3cncnc3)cc12` [Compound 2] belongs under 1000 nM; to `NC(=O)c1nn(CC(=O)N2C[C@H](F)C[C@H]2C(=O)Nc2cccc(Br)n2)c2ccc(-c3ccc(N4CCOCC4)cc3)cc12` [Compound 3, 1-(2-((2S,4R)-2-((6-Bromopyridin-2-yl)carbamoyl)-4-fluoropyrrolidin-1-yl)-2-oxoethyl)-5-(4-morphlinophenyl)-1H-indazole-3-carboxamide], under 1000 nM; to `NC(=O)c1nn(CC(=O)N2[C@@H]3C[C@@H]3C[C@H]2C(=O)Nc2cccc(Br)n2)c2ccc(-c3cncnc3)cc12` [Compound 4], under 1000 nM. With `NC(=O)c1nn(CC(=O)N2C[C@H](F)C[C@H]2C(=O)Nc2cccc(Br)n2)c2ccc(-c3cncnc3)cc12` [Compound 5, 1-(2-((2S,4R)-2-(6-bromopyridin-2-ylcarbamoyl)-4-fluoropyrrolidin-1-yl)-2-oxoethyl)-5-(pyrimidin-5-yl)-1H-indazole-3-carboxamide], the concentration for half-maximal inhibition (IC50) is under 1000 nM. On the same count and under the same terms, to `NC(=O)c1nn(CC(=O)N2[C@@H]3C[C@@H]3C[C@H]2C(=O)Nc2cccc(-c3ccccc3Cl)c2F)c2ccc(-c3cncnc3)cc12` [Compound 6, 1-(2-((1R,3S,5R)-3-((2′-Chloro-2-fluoro-[1,1′-biphenyl]-3-yl)carbamoyl)-azabicyclo[3.1.0]hexan-2-yl)-2-oxoethyl)-5-(pyrimidin-5-yl)-1H-indazole-3-carboxamide] belongs under 1000 nM. Still for that read-out and setting: to `NC(=O)c1nn(CC(=O)N2[C@@H]3C[C@@H]3C[C@H]2C(=O)Nc2cccc(-c3ccccc3Cl)c2F)c2ccc(-c3ncccn3)cc12` [Compound 7, 1-(2-((1R,3S,5R)-3-(2′-chloro-2-fluorobiphenyl-3-ylcarbamoyl)-2-azabicyclo[3.1.0]hexan-2-yl)-2-oxoethyl)-5-(pyrimidin-2-yl)-1H-indazole-3-carboxamide] belongs under 1000 nM; to `NC(=O)c1nn(CC(=O)N2[C@@H]3C[C@@H]3C[C@H]2C(=O)Nc2cccc(OC(F)(F)F)c2F)c2ccc(-c3cncnc3)cc12` [Compound 8, 1-(2-((1R,3S,5R)-3-(2-fluoro-3-(trifluoromethoxy)phenylcarbamoyl)-2-azabicyclo[3.1.0]hexan-2-yl)-2-oxoethyl)-5-(pyrimidin-5-yl)-1H-indazole-3-carboxamide], under 1000 nM; to `NC(=O)c1nn(CC(=O)N2C[C@H](F)C[C@H]2C(=O)Nc2cccc(OC(F)(F)F)c2F)c2ccc(-c3cncnc3)cc12` [Compound 9, 1-(2-((2S,4R)-4-fluoro-2-(2-fluoro-3-(trifluoromethoxy)phenylcarbamoyl)pyrrolidin-1-yl)-2-oxoethyl)-5-(pyrimidin-5-yl)-1H-indazole-3-carboxamide], under 1000 nM. Same read-out and setting: to `NC(=O)c1nn(CC(=O)N2C[C@H](F)C[C@H]2C(=O)Nc2cccc(-c3ccccc3Cl)c2F)c2ccc(-c3cnc(N4CCCC4)nc3)cc12` [Compound 10] belongs under 1000 nM. With `NC(=O)c1nn(CC(=O)N2[C@@H]3C[C@@H]3C[C@H]2C(=O)Nc2cccc(Br)n2)c2ccc(-c3cnc(N4CCCC4)nc3)cc12` [Compound 11], the IC50 is under 1000 nM. For the compound `NC(=O)c1nn(CC(=O)N2C[C@H](F)C[C@H]2C(=O)Nc2cccc(-c3ccccc3Cl)c2F)c2ccc(-c3ccc(F)nc3)cc12` [Compound 12, 1-(2-((2S,4R)-2-((2′-Chloro-2-fluoro-[1,1′-biphenyl]-3-yl)carbamoyl)-4-fluoropyrrolidin-1-yl)-2-oxoethyl)-5-(6-fluoropyridin-3-yl)-1H-indazole-3-carboxamide], the IC50 was under 1000 nM. Consider `NC(=O)c1nn(CC(=O)N2[C@@H]3C[C@@H]3C[C@H]2C(=O)Nc2cccc(-c3ccccc3Cl)c2F)c2ccc(-c3ccc(F)nc3)cc12` [Compound 13, 1-(2-((1R,3S,5R)-3-(2′-chloro-2-fluorobiphenyl-3-ylcarbamoyl)-2-azabicyclo[3.1.0]hexan-2-yl)-2-oxoethyl)-5-(6-fluoropyridin-3-yl)-1H-indazole-3-carboxamide], for which the IC50 is under 1000 nM.

Take `CC(=O)c1cn(CC(=O)N2C[C@H](F)C[C@H]2C(=O)Nc2cccc(Br)n2)c2ccc(-c3cncnc3)cc12` [Compound 14, (2S,4R)-1-(2-(3-acetyl-5-(pyrimidin-5-yl)-1H-indol-1-yl)acetyl)-N-(6-bromopyridin-2-yl)-4-fluoropyrrolidine-2-carboxamide]: the IC50 is under 1000 nM.

For `CC(=O)c1cn(CC(=O)N2[C@@H]3C[C@@H]3C[C@H]2C(=O)Nc2cccc(-c3ccccc3Cl)c2F)c2ccc(-c3cncnc3)cc12` [Compound 15, (1R,3S,5R)-2-(2-(3-acetyl-5-(pyrimidin-5-yl)-1H-indol-1-yl)acetyl)-N-(2′-chloro-2-fluorobiphenyl-3-yl)-2-azabicyclo[3.1.0] hexane-3-carboxamide], the IC50 is under 1000 nM. Take `CC(=O)c1cn(CC(=O)N2C[C@H](F)C[C@H]2C(=O)Nc2cccc(-c3ccccc3Cl)c2F)c2ccc(N3CCN(C(C)=O)CC3)cc12` [Compound 16, (2S,4R)-1-(2-(3-acetyl-5-(4-acetylpiperazin-1-yl)-1H-indol-1-yl)acetyl)-N-(2′-chloro-2-fluorobiphenyl-3-yl)-4-fluoropyrrolidine-2-carboxamide]: the IC50 is under 1000 nM. On the same count and under the same terms, to `CC(=O)c1cn(CC(=O)N2[C@@H]3C[C@@H]3C[C@H]2C(=O)Nc2cccc(Br)n2)c2ccc(-c3cncnc3)cc12` [Compound 17, (1R,3S,5R)-2-(2-(3-acetyl-5-(pyrimidin-5-yl)-1H-indol-1-yl)acetyl)-N-(6-bromopyridin-2-yl)2-azabicyclo[3.1.0] hexane-3-carboxamide] belongs under 1000 nM; to `NC(=O)c1nn(CC(=O)N2C[C@H](F)C[C@H]2C(=O)NCc2cccc(Cl)c2F)c2cnc(-c3cncnc3)cc12` [Compound 18, 1-(2-((2S,4R)-2-(3-chloro-2-fluorobenzyl-carbamoyl)-4-fluoropyrrolidin-1-yl)-2-oxoethyl)-5-(pyrimidin-5-yl)-1H-pyrazolo[3,4-c]pyridine-3-carboxamide], under 1000 nM; to `NC(=O)c1nn(CC(=O)N2C[C@H](F)C[C@H]2C(=O)Nc2cccc(-c3ccccc3Cl)c2F)c2cnc(-c3cncnc3)cc12` [Compound 19, 1-(2-((2S,4R)-2-((2′-Chloro-2-fluoro-[1,1′-biphenyl]-3-yl)carbamoyl)-4-fluoropyrrolidin-1-yl)-2-oxoethyl)-5-(pyrimidin-5-yl)-1H-pyrazolo[3,4-c]pyridine-3-carboxamide], under 1000 nM. On the same count and under the same terms, for `CC(=O)c1cn(CC(=O)N2C[C@H](F)C[C@H]2C(=O)Nc2cccc(-c3ccccc3Cl)c2F)c2ccc(-c3ccnnc3)cc12` [Compound 20, (2S,4R)-1-(2-(3-Acetyl-5-(pryridazin-4-yl)-1H-indol-1-yl)acetyl)-N-(2′-chloro-2-fluoro-[1,1′-biphenyl]-3-yl)-4-fluoropyrrolidine-2-carboxamide] the value was under 1000 nM; for `COc1ncc(-c2ccc3c(c2)c(C(C)=O)cn3CC(=O)N2C[C@H](F)C[C@H]2C(=O)Nc2cccc(Br)n2)cn1` [Compound 21, (2S,4R)-1-(2-(3-acetyl-5-(2-methoxypyrimidin-5-yl)-1H-indol-1-yl)acetyl)-N-(6-bromopyridin-2-yl)-4-fluoropyrrolidine-2-carboxamide], under 1000 nM. On the same count and under the same terms, to `CN1CC=C(c2ccc3c(c2)c(C(N)=O)nn3CC(=O)N2C[C@H](F)C[C@H]2C(=O)Nc2cccc(Br)n2)CC1` [Compound 22, 1-(2-((2S,4R)-2-(6-bromopyridin-2-ylcarbamoyl)-4-fluoropyrrolidin-1-yl)-2-oxoethyl)-5-(1-methyl-1,2,3,6-tetrahydropyridin-4-yl)-1H-indazole-3-carboxamide] belongs under 1000 nM; to `NC(=O)c1nn(CC(=O)N2C[C@H](F)C[C@H]2C(=O)Nc2cccc(Br)n2)c2ccc(-c3ccnnc3)cc12` [Compound 25, 1-(2-((2S,4R)-2-(6-bromopyridin-2-ylcarbamoyl)-4-fluoropyrrolidin-1-yl)-2-oxoethyl)-5-(pyridazin-4-yl)-1H-indazole-3-carboxamide], under 1000 nM.

Staying with this test, now noted: Human Factor D, Table 3; read-out: IC50.
Consider `CC(=O)c1nn(CC(=O)N2C(C(=O)Nc3cccc(Br)n3)C[C@@]3(CN(C)C)C[C@@H]23)c2ccc(-c3cnc(C)nc3)cc12` (stereo in doubt) [Compound 577, (1R,3S,5R)-2-(2-(3-Acetyl-5-(2-methylpyrimidin-5-yl)-1H-indazol-1-yl)acetyl)-N-(6-bromopyridin-2-yl)-5-((dimethylamino)methyl)-2-azabicyclo[3.1.0]hexane-3-carboxamide], for which the IC50 was under 1000 nM. For the compound `CC(=O)c1nn(CC(=O)N2C(C(=O)Nc3cccc(Br)n3)C[C@]3(CN(C)C)C[C@H]23)c2ccc(-c3cnc(C)nc3)cc12` (stereo in doubt) [Compound 578, (1S,3S,5S)-2-(2-(3-acetyl-5-(2-methylpyrimidin-5-yl)-1H-indazol-1-yl)acetyl)-N-(6-bromopyridin-2-yl)-5-((dimethylamino)methyl)-2-azabicyclo[3.1.0]hexane-3-carboxamide], the IC50 is under 1000 nM. On to `CC(=O)c1nn(CC(=O)N2C[C@@](F)(CF)CC2C(=O)Nc2nc(Br)ccc2C)c2ccc(-c3cnc(N)nc3)cc12` (stereo in doubt) [Compound 579, (2S,4R)-1-(2-(3-acetyl-5-(2-aminopyrimidin-5-yl)-1H-indazol-1-yl)acetyl)-N-(6-bromo-3-methylpyridin-2-yl)-4-fluoro-4-(fluoromethyl) pyrrolidine-2-carboxamide], for which the IC50 was under 1000 nM.
